{
  "source": "patent US9980943B2",
  "about": "“Methods of treating muscular dystrophy” (BOARD OF REGENTS OF THE NEVADA SYSTEM OF HIGHER EDUCATION, …, priority 2013, dated 2018)",
  "format_in_all_cases": "cell-based, mouse",
  "key": {"[1]": {"tested_on": "α7 integrin (LacZ reporter in α7+/LacZ myotubes)", "assay": "Myotube α7 integrin FDG assay (Burkin assay in myotubes, 96-well)", "details": "for Burkin Assay in Myotubes, value relative to DMSO: SU9516 analogs, 96-well, N=3-6"}, "[2]": {"tested_on": "β-galactosidase in CMV-LacZ C2C12 myotubes", "assay": "CMV-LacZ secondary screen in C2C12 myotubes (β-Gal stabilizing assay)", "details": "for CMV-LACZ in Myotubes, signal relative to DMSO: C2C12 CMV-LacZ myotubes, fold relative to DMSO; for CMV-LACZ in Myotubes, value relative to DMSO: SU9516 analogs, C2C12 CMV-LacZ, N=2", "how_it_was_run": "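First, C2C12 myoblasts were transfected with a linearized CMV-LACZ vector and clonal lines selected by FDG β-gal assay. Then cells were exposed to compounds at 0.5, 1, 5, 10, 20 and 40 μM in 96-well format, two replicates each, and β-gal measured.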"}, "[3]": {"tested_on": "α7 integrin (LacZ reporter in α7βgal+/− myoblasts)", "assay": "Myoblast α7+/LacZ integrin FDG assay (Burkin assay in myoblasts, 96-well)", "details": "96-well; for Burkin Assay in Myoblasts, signal relative to DMSO: α7+/LacZ myoblasts; for Burkin Assay in Myoblasts, value relative to DMSO: SU9516 analogs, N=3-6"}, "[4]": {"tested_on": "β-galactosidase in CMV-LacZ C2C12 myoblasts", "assay": "CMV-LacZ secondary screen in C2C12 myoblasts (β-Gal stabilizing assay)", "details": "for CMV-LACZ in Myoblasts (β-galactosidase activity relative to DMSO): CMV-LacZ C2C12 myoblasts; for CMV-LACZ in Myoblasts, value relative to DMSO: SU9516 analogs, C2C12 CMV-LacZ, N=2", "how_it_was_run": "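C2C12 myoblasts stably carrying a linearized CMV-driven LacZ construct, clone chosen by β-gal level in the myoblast FDG assay. Compounds tested in 96-well dose-response at 0.5, 1, 5, 10, 20 and 40 μM, N=2 replicates per point, to detect β-gal stabilization.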"}},
  "data": [
    {"molecule": "CCOc1ccc2nc(Cl)sc2c1", "note": "[MLS000678673-01]", "values": [
      {"measurement": "Burkin Assay in Myotubes, α7 integrin LacZ reporter signal relative to DMSO", "setting": "[1]; 0.5 uM", "result": 0.9772},
      {"measurement": "Burkin Assay in Myotubes, α7 integrin LacZ reporter signal relative to DMSO", "setting": "[1]; 1 uM", "result": 0.9802},
      {"measurement": "Burkin Assay in Myotubes, α7 integrin LacZ reporter signal relative to DMSO", "setting": "[1]; 5 uM", "result": 0.9767},
      {"measurement": "Burkin Assay in Myotubes, α7 integrin LacZ reporter signal relative to DMSO", "setting": "[1]; 10 uM", "result": 0.9606},
      {"measurement": "Burkin Assay in Myotubes, α7 integrin LacZ reporter signal relative to DMSO", "setting": "[1]; 20 uM", "result": 0.8655},
      {"measurement": "Burkin Assay in Myotubes, α7 integrin LacZ reporter signal relative to DMSO", "setting": "[1]; 40 uM", "result": 0.781},
      {"measurement": "CMV-LACZ in Myotubes, signal relative to DMSO", "setting": "[2]; 0.5 uM", "result": 1.1229},
      {"measurement": "CMV-LACZ in Myotubes, signal relative to DMSO", "setting": "[2]; 1 uM", "result": 1.0286},
      {"measurement": "CMV-LACZ in Myotubes, signal relative to DMSO", "setting": "[2]; 5 uM", "result": 0.7918},
      {"measurement": "CMV-LACZ in Myotubes, signal relative to DMSO", "setting": "[2]; 10 uM", "result": 0.9367},
      {"measurement": "CMV-LACZ in Myotubes, signal relative to DMSO", "setting": "[2]; 20 uM", "result": 0.9635},
      {"measurement": "CMV-LACZ in Myotubes, signal relative to DMSO", "setting": "[2]; 40 uM", "result": 1.1835},
      {"measurement": "Burkin Assay in Myoblasts, signal relative to DMSO", "setting": "[3]; 0.5 uM", "result": 0.9325},
      {"measurement": "Burkin Assay in Myoblasts, signal relative to DMSO", "setting": "[3]; 1 uM", "result": 1.054},
      {"measurement": "Burkin Assay in Myoblasts, signal relative to DMSO", "setting": "[3]; 5 uM", "result": 1.044},
      {"measurement": "Burkin Assay in Myoblasts, signal relative to DMSO", "setting": "[3]; 10 uM", "result": 0.9687},
      {"measurement": "Burkin Assay in Myoblasts, signal relative to DMSO", "setting": "[3]; 20 uM", "result": 1.173},
      {"measurement": "Burkin Assay in Myoblasts, signal relative to DMSO", "setting": "[3]; 40 uM", "result": 1.134},
      {"measurement": "CMV-LACZ in Myoblasts (β-galactosidase activity relative to DMSO)", "setting": "[4]; 0.5 uM", "result": 1.2106},
      {"measurement": "CMV-LACZ in Myoblasts (β-galactosidase activity relative to DMSO)", "setting": "[4]; 1 uM", "result": 1.1914},
      {"measurement": "CMV-LACZ in Myoblasts (β-galactosidase activity relative to DMSO)", "setting": "[4]; 5 uM", "result": 1.0561},
      {"measurement": "CMV-LACZ in Myoblasts (β-galactosidase activity relative to DMSO)", "setting": "[4]; 10 uM", "result": 0.8991},
      {"measurement": "CMV-LACZ in Myoblasts (β-galactosidase activity relative to DMSO)", "setting": "[4]; 20 uM", "result": 0.8674},
      {"measurement": "CMV-LACZ in Myoblasts (β-galactosidase activity relative to DMSO)", "setting": "[4]; 40 uM", "result": 0.9656}
    ]},
    {"molecule": "O=C1Nc2ccccc2/C1=C/c1cccnc1", "note": "[MLS000682748-01]", "values": [
      {"measurement": "Burkin Assay in Myotubes, value relative to DMSO", "setting": "[1]; 0.5 uM", "result": 0.9801},
      {"measurement": "Burkin Assay in Myotubes, value relative to DMSO", "setting": "[1]; 1 uM", "result": 1.211},
      {"measurement": "Burkin Assay in Myotubes, value relative to DMSO", "setting": "[1]; 5 uM", "result": 1.147},
      {"measurement": "Burkin Assay in Myotubes, value relative to DMSO", "setting": "[1]; 10 uM", "result": 1.085},
      {"measurement": "Burkin Assay in Myotubes, value relative to DMSO", "setting": "[1]; 20 uM", "result": 0.743},
      {"measurement": "Burkin Assay in Myotubes, value relative to DMSO", "setting": "[1]; 40 uM", "result": 0.6206},
      {"measurement": "CMV-LACZ in Myotubes, value relative to DMSO", "setting": "[2]; 0.5 uM", "result": 0.9356},
      {"measurement": "CMV-LACZ in Myotubes, value relative to DMSO", "setting": "[2]; 1 uM", "result": 0.8459},
      {"measurement": "CMV-LACZ in Myotubes, value relative to DMSO", "setting": "[2]; 5 uM", "result": 0.8790},
      {"measurement": "CMV-LACZ in Myotubes, value relative to DMSO", "setting": "[2]; 10 uM", "result": 0.9205},
      {"measurement": "CMV-LACZ in Myotubes, value relative to DMSO", "setting": "[2]; 20 uM", "result": 1.1753},
      {"measurement": "CMV-LACZ in Myotubes, value relative to DMSO", "setting": "[2]; 40 uM", "result": 1.1071},
      {"measurement": "Burkin Assay in Myoblasts, value relative to DMSO", "setting": "[3]; 0.5 uM", "result": 1.259},
      {"measurement": "Burkin Assay in Myoblasts, value relative to DMSO", "setting": "[3]; 1 uM", "result": 1.162},
      {"measurement": "Burkin Assay in Myoblasts, value relative to DMSO", "setting": "[3]; 5 uM", "result": 0.8923},
      {"measurement": "Burkin Assay in Myoblasts, value relative to DMSO", "setting": "[3]; 10 uM", "result": 0.765},
      {"measurement": "Burkin Assay in Myoblasts, value relative to DMSO", "setting": "[3]; 20 uM", "result": 0.4669},
      {"measurement": "Burkin Assay in Myoblasts, value relative to DMSO", "setting": "[3]; 40 uM", "result": 0.2472},
      {"measurement": "CMV-LACZ in Myoblasts, value relative to DMSO", "setting": "[4]; 0.5 uM", "result": 0.9075},
      {"measurement": "CMV-LACZ in Myoblasts, value relative to DMSO", "setting": "[4]; 1 uM", "result": 0.9666},
      {"measurement": "CMV-LACZ in Myoblasts, value relative to DMSO", "setting": "[4]; 5 uM", "result": 1.0215},
      {"measurement": "CMV-LACZ in Myoblasts, value relative to DMSO", "setting": "[4]; 10 uM", "result": 0.9959},
      {"measurement": "CMV-LACZ in Myoblasts, value relative to DMSO", "setting": "[4]; 20 uM", "result": 0.3893},
      {"measurement": "CMV-LACZ in Myoblasts, value relative to DMSO", "setting": "[4]; 40 uM", "result": 0.2419}
    ]},
    {"molecule": "Cc1ccc2c(c1)/C(=C/c1ccco1)C(=O)N2", "note": "[MLS000682750-01]", "values": [
      {"measurement": "Burkin Assay in Myotubes, α7 integrin LacZ reporter signal relative to DMSO", "setting": "[1]; 0.5 uM", "result": 0.9957},
      {"measurement": "Burkin Assay in Myotubes, α7 integrin LacZ reporter signal relative to DMSO", "setting": "[1]; 1 uM", "result": 0.9939},
      {"measurement": "Burkin Assay in Myotubes, α7 integrin LacZ reporter signal relative to DMSO", "setting": "[1]; 5 uM", "result": 1.073},
      {"measurement": "Burkin Assay in Myotubes, α7 integrin LacZ reporter signal relative to DMSO", "setting": "[1]; 10 uM", "result": 0.8839},
      {"measurement": "Burkin Assay in Myotubes, α7 integrin LacZ reporter signal relative to DMSO", "setting": "[1]; 20 uM", "result": 1.002},
      {"measurement": "Burkin Assay in Myotubes, α7 integrin LacZ reporter signal relative to DMSO", "setting": "[1]; 40 uM", "result": 0.7064},
      {"measurement": "CMV-LACZ in Myotubes, signal relative to DMSO", "setting": "[2]; 0.5 uM", "result": 1.0248},
      {"measurement": "CMV-LACZ in Myotubes, signal relative to DMSO", "setting": "[2]; 1 uM", "result": 0.9638},
      {"measurement": "CMV-LACZ in Myotubes, signal relative to DMSO", "setting": "[2]; 5 uM", "result": 1.1285},
      {"measurement": "CMV-LACZ in Myotubes, signal relative to DMSO", "setting": "[2]; 10 uM", "result": 1.0939},
      {"measurement": "CMV-LACZ in Myotubes, signal relative to DMSO", "setting": "[2]; 20 uM", "result": 1.1189},
      {"measurement": "CMV-LACZ in Myotubes, signal relative to DMSO", "setting": "[2]; 40 uM", "result": 1.0579},
      {"measurement": "Burkin Assay in Myoblasts, signal relative to DMSO", "setting": "[3]; 0.5 uM", "result": 1.203},
      {"measurement": "Burkin Assay in Myoblasts, signal relative to DMSO", "setting": "[3]; 1 uM", "result": 1.02},
      {"measurement": "Burkin Assay in Myoblasts, signal relative to DMSO", "setting": "[3]; 5 uM", "result": 1.229},
      {"measurement": "Burkin Assay in Myoblasts, signal relative to DMSO", "setting": "[3]; 10 uM", "result": 1.076},
      {"measurement": "Burkin Assay in Myoblasts, signal relative to DMSO", "setting": "[3]; 20 uM", "result": 1.124},
      {"measurement": "Burkin Assay in Myoblasts, signal relative to DMSO", "setting": "[3]; 40 uM", "result": 1.103},
      {"measurement": "CMV-LACZ in Myoblasts (β-galactosidase activity relative to DMSO)", "setting": "[4]; 0.5 uM", "result": 0.9679},
      {"measurement": "CMV-LACZ in Myoblasts (β-galactosidase activity relative to DMSO)", "setting": "[4]; 1 uM", "result": 1.0467},
      {"measurement": "CMV-LACZ in Myoblasts (β-galactosidase activity relative to DMSO)", "setting": "[4]; 5 uM", "result": 0.8717},
      {"measurement": "CMV-LACZ in Myoblasts (β-galactosidase activity relative to DMSO)", "setting": "[4]; 10 uM", "result": 0.9934},
      {"measurement": "CMV-LACZ in Myoblasts (β-galactosidase activity relative to DMSO)", "setting": "[4]; 20 uM", "result": 1.1433},
      {"measurement": "CMV-LACZ in Myoblasts (β-galactosidase activity relative to DMSO)", "setting": "[4]; 40 uM", "result": 1.0404}
    ]}
  ]
}
